How the values were obtained:
CHO cells = assay: Cell staining with liposomes containing DDAO-gal, CHO cells (FMAT fluorescence); type: cell-based, Chinese Hamster; conditions: no endogenous β-galactosidase, 3 hr at 37° C., excitation 633 nm
Experimental: The experiments shown in FIGS. 7-9, were conducted under similar conditions to those of FIGS. 1-3, respectively, with the exception that Chinese Hamster Ovary (CHO) cells were used.

E. coli β-galactosidase = E. coli β-galactosidase (Escherichia coli, UniProt P00722); conditions: psi 2 BAGα cells constitutively expressing β-galactosidase; 3 hr at 37° C.; excitation 633 nm; emission 685-710 nm (panel B)
E. coli β-galactosidase, sequence (P00722 whole entry): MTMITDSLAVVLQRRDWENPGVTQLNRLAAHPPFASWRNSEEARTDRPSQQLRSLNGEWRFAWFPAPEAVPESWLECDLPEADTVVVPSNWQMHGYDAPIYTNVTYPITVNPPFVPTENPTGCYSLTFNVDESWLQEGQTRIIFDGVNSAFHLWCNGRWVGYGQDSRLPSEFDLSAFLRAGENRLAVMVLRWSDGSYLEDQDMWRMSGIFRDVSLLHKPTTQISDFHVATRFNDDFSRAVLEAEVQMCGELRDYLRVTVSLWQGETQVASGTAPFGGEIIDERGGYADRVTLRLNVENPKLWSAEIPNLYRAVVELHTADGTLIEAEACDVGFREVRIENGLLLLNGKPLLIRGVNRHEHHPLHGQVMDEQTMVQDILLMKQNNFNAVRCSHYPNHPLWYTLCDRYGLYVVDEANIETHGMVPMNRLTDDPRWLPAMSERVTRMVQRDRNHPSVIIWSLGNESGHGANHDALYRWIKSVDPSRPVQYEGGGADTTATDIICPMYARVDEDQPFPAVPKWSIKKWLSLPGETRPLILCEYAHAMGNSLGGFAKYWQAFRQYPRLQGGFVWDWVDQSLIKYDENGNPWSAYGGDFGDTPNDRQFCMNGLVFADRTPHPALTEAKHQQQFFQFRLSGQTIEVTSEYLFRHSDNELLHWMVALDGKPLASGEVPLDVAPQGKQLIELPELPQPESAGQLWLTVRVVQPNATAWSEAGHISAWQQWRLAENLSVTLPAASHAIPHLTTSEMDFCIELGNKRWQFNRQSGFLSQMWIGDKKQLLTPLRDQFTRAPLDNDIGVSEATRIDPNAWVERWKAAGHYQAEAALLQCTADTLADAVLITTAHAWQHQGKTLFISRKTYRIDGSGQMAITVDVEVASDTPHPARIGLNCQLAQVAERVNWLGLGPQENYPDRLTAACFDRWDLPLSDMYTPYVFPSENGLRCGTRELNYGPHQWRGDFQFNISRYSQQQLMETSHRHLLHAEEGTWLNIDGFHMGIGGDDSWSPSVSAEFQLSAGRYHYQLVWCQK
Experimental: Psi 2 BAGα cells (ATCC, catalog no. CRL-9560) in Dulbecco's modified Eagle's medium (ATCC, catalog no. 30-2002) containing 5% Fetal Bovine Serum (FBS, HyClone, catalog no. SH30071.03) and 1% penicillin-streptomycin solution (pen/strep, ATCC, catalog no. 30-2300) were seeded (200 μl/well, 10,000 cell/well) in black 96 well microtiter plates (ABI, catalog no. 4308776). […] After overnight incubation at 37° C. under 5% CO2 the supernatants were removed carefully so as not to detach the adherent cells from the wells. Solutions of liposome encapsulated DDAO-gal, liposome encapsulated DDAO and nonencapsulated DDAO-gal were prepared in the appropriate cell medium and then added to the cells (200 μl/well). The nonencapsulated DDAO-gal solution was used as a negative control (no liposome, passive uptake) and the liposome encapsulated DDAO solution was used as a positive control (DDAO is the product of DDAO-gal hydrolysis). After incubation for 3 hr at 37° C. under 5% CO2 the staining solutions were removed carefully and the cells were washed twice with Dulbecco's PBS (200 μl, ATCC, catalog no. 30-2200). PBS (200 μl) was added to the wells and the plate was read using an 8100 FMAT instrument (Applied Biosystems, an Applera Corporation business).
DDAO-gal without liposomes were used as a negative control (passive load) and liposomes containing DDAO were used as a positive control. […]

With `CC1(C)C2=C(Cl)C(=O)C(Cl)=CC2=Nc2ccc(O[C@@H]3O[C@H](CO)[C@H](O)[C@H](O)[C@H]3O)cc21` [DDAO-gal, 9H-(1,3-dichloro-9,9-dimethylacridin-2-one-7-yl) β-D-galactopyranoside] the fluorescent signal (CHO cells) was “signal observed” and the fluorescent signal (E. coli β-galactosidase) was “much lower signal”.

— patent publication US20050244907A1, “Methods, compositions, and kits for analysis of enzyme activity in cells” (Applera Corporation, priority 2003, published 2005)
